Measured values published in paper PMC13441969, “Zero-shot design of drug-binding proteins via neural iterative selection−expansion” (Nature, 2026).
pIC50, pKd: −log10 of the molar value. Entries after “also recorded” stand apart in the source; their conditions may differ. Counter-ions that a name gives are not always drawn.

Columns and labels:
EPIC = test: Fluorescence anisotropy of fluorescent ligands binding to EPIC; conditions: for pKd / binding of ligand to EPIC (words): [ligand] = 50 nM; for pKd: 1:1 binding model; for binding of ligand to EPIC (words): dexamethasone and apixaban as FITC conjugates
Protocol: including the ProteinMPNN-designed sequences along with the Ala/Gly versions, are available […]
Fluorescence Polarization Experiments to Determine Binding Affinities
We performed fluorescence anisotropy experiments in a 384 -well plate -reader format to determine the binding affinities of protein s with various ligands (Supp. Fig. 15 and Supp. Table 6). We serially diluted an initial solution containing a high concentration of protein while keeping a constant concentration of ligand (50 nM) in each well. The buffer for these assays was composed of 1x PBS, pH 7.4, and 0.1% w/v PEG-8000. Camptothecin-class molecules (exatecan, camptothecin, belotecan, FL118, irinotecan) were excited at a wavelength of 360 nm using a BMG LabTech PHERAstar FSX plate reader or a BMG LabTech CLARIOstar Plus plate reader. We detected the resulting parallel and perpendicularly polarized emission at 440 nm. […]
excited using 482 nm filter (16 nm bandwidth) using a BMG LabTech CLARIOstar Plus plate reader, and parallel and perpendicularly polarized emissions were detected through a 530 nm filter (40 nm bandwidth). Data was fit using the quadratic form of a single-site binding model.
Gain settings for each molecule were calculated by auto-adjusting the focus on a well containing free ligand and buffer, setting the millipolarization (mP) of free ligand to mP = 35.
Fits to Fluorescence Anisotropy Data
Data from fluorescence anisotropy (r) experiments, which varied total protein concentration, [P]T for a fixed total ligand concentration, [L]T, was fit to a single-site binding […]
model (Equations 1 and 2, N = 1). […] For
EPIC and its mutants, confidence intervals of the fit parameters were determined from bootstrapping the residuals of the optimum fit (random residual selection with replacement) to create 1000 synthetic datasets, which were each separately fit to Equations 1 and 2. Parameter means and 95% confidence intervals were determined from the distribution of the parameters computed from the bootstrapped fits.
We performed separate protein titrations across three fixed exatecan concentration s (25 , 12.5 , and 5 nM) and measured fluorescence anisotropy of exatecan as a function of protein concentration . For each EPIC mutant, the dissociation constant (Kd) and anisotropy baseline (A min) were shared parameters across the three exatecan concentrations. Anisotropy maxima (Amax) and ligand concentration ([L]T) were fit locally. We fit the ligand concentrations locally (to within 15% of the target concentration) to account for experimental discrepancies. Code for performing the fitting is provided in Zenodo16. […]

[1] = Exatecan lactone hydrolysis by time-resolved absorbance; type: physicochemical; conditions: room temperature, pH 7.4; 3 half-lives
[2] = set-up: method as in PMID 35318309, PMID 31620223; conditions: read-out: cellular half-maximum inhibitory concentration (IC50); cited from earlier work
[3] = set-up: method as in PMID 11595695; conditions: cited from earlier work

Row | SMILES | ΔΔG (change in binding free energy) relative to the exatecan–EPIC complex (EPIC) | pKd (EPIC) | binding of ligand to EPIC (words) (EPIC) | further results
1 | CC[C@@]1(O)C(=O)OCc2c1cc1n(c2=O)Cc2cc3cc4c(cc3nc2-1)OCO4 [FL118] | 2.3 kcal/mol | 5.22 |  | 
2 | COc1ccc(-n2nc(C(N)=O)c3c2C(=O)N(c2ccc(N4CCCCC4=O)cc2)CC3)cc1 [apixaban, Apixaban] |  |  | no appreciable binding; also recorded: does not bind | 
3 | COc1ccc(-n2nc(C(=O)NCCOCCOCCNC(=S)Nc3ccc(-c4c5ccc(=O)cc-5oc5cc(O)ccc45)c(C(=O)O)c3)c3c2C(=O)N(c2ccc(N4CCCCC4=O)cc2)CC3)cc1 [apixaban-peg-FITC] |  |  | did not show any experimentally detectable binding | 
4 | CC[C@@]1(O)C(=O)OCc2c1cc1n(c2=O)Cc2c-1nc1ccccc1c2CCNC(C)C [belotecan, Belotecan hydrochloride] | 3.0 kcal/mol | 4.72 |  | 
5 | CC[C@@]1(O)C(=O)OCc2c1cc1n(c2=O)Cc2cc3ccccc3nc2-1 [camptothecin, Camptothecin] | 3.9 kcal/mol | 4.05 |  | 
6 | C[C@@H]1C[C@H]2[C@@H]3CCC4=CC(=O)C=C[C@]4(C)[C@@]3(F)[C@@H](O)C[C@]2(C)[C@@]1(O)C(=O)CO [dexamethasone] |  |  | no binding; also recorded: does not bind | binding of ligand to EPIC (words) (EPIC; listed as Dexamethasone): no appreciable binding
7 | CC[C@@]1(O)C(=O)OCc2c1cc1n(c2=O)Cc2c-1nc1cc(F)c(C)c3c1c2[C@@H](N)CC3 [exatecan, Exatecan mesylate] |  | 6.92 |  | fold tighter binding of EPIC to exatecan than to any other ligand tested (EPIC): at least 50 fold; time for nearly complete conversion from C to O form [1]: ≤ 6 h; pIC50 [2]: ~9.00; half-life of hydrolysis of free drug in plasma ([3]; plasma): around 2 h; steady-state level of lactone form in human plasma ([3]; within 10 h): 15%
8 | CCc1c2c(nc3ccc(OC(=O)N4CCC(N5CCCCC5)CC4)cc13)-c1cc3c(c(=O)n1C2)COC(=O)[C@]3(O)CC [irinotecan] |  |  | not to bind; also recorded: no appreciable binding | binding of ligand to EPIC (words) (EPIC; listed as Irinotecan): negligible binding
